US20090054404A1, “USE OF R-10-HYDROXY-10,11-DIHYDRO-CARBAMAZEPINE IN NEUROPATHIC PAIN” (priority 2003, published 2009)

Columns and labels:
neuropathic guinea-pigs [1] = assay: Reversal of mechanical hyperalgesia in a model of neuropathic pain (partial sciatic nerve ligation, paw withdrawal threshold); type: in vivo, guinea pig
Source text: Neuropathic hyperalgesia is induced by partial ligation of the left sciatic nerve (Seltzer et al, Pain 43, 1990, 205-218; Campbell et al, Neuroscience 87, 1998, 527-532). Briefly, male Dunkin Hartley guinea pigs (200-250 g) are anaesthetized with isoflurane in N2O:O2, the left sciatic nerve exposed at mid thigh level through a small incision and ⅓ to ½ of the nerve thickness tightly ligated within a 7.0 silk suture. The wound is closed and the animals are allowed to recover from surgery for 12 to 15 days.
Mechanical hyperalgesia is assessed by measuring paw withdrawal thresholds to an increasing pressure stimulus placed onto the dorsal surface of the paw using an analgesymeter (Ugo-Basile, Milan) with a cut-off of 250 g. Withdrawal are measured on both the ipsilateral (ligated) and contralateral (unligated) paw prior to and then up to 6 h following drug or vehicle administration. Reversal of hyperalgesia at each time point is calculated according to the following formula, which uses the contralateral paw as a reference: […]
(§1) The enantiomers of the compound of formula I are administered daily in 0.5% methyl-cellulose/water, with Trileptal™ included in each experiment as positive control. Each experiment uses 6 randomly assigned animals per treatment group. Statistical analysis is carried out on withdrawal threshold data comparing test to vehicle.

neuropathic guinea-pigs [2] = assay: Side-effects observed after administration in the neuropathic pain model; type: in vivo, guinea pig
Protocol: as §1
The R-enantiomer of the compound of formula I produces a dose-related reversal of mechanical hyperalgesia in neuropathic guinea-pigs. A maximum reversal of 73% is observed 1 h following administration with a calculated D50 value of 47 mg/kg.

[3] = 1 h following administration, neuropathic guinea-pigs
[4] = highest dose tested (100 mg/kg)

SMILES	calculated D50 value (reversal of mechanical hyperalgesia) (neuropathic guinea-pigs [1]; [3]) [mg/kg]	maximum reversal of mechanical hyperalgesia (neuropathic guinea-pigs [1]; [3]) [%]	duration of anti-hyperalgesic effect (neuropathic guinea-pigs [1]; 6 h following administration)	side-effects (neuropathic guinea-pigs [2]; highest dose)	anti-hyperalgesic activity (neuropathic guinea-pigs [1]; [4])	apparent maximal reversal of hyperalgesia (neuropathic guinea-pigs [1]; [4]) [%]	anti-hyperalgesic activity (neuropathic guinea-pigs [1]; lower doses (below 100 mg/kg))	side-effects (neuropathic guinea-pigs [2]; at doses that reverse mechanical hyperalgesia)
NC(=O)N1c2ccccc2C[C@@H](O)c2ccccc21 (single isomer, unassigned) [R-enantiomer, R(−)-10,11-dihydro-10-hydroxy-5H-dibenzo[b,f]azepine-5-carboxamide]	47	73	significant activity	comparatively mild side-effect	–	–	–	–
NC(=O)N1c2ccccc2C[C@H](O)c2ccccc21 (single isomer, unassigned) [S-enantiomer, S(+)-10,11-dihydro-10-hydroxy-5H-dibenzo[b,f]azepine-5-carboxamide]	–	–	–	–	observed	55	no significant effect	marked side-effects, principally ataxia and catalepsy
